Values quoted from earlier work as cited in patent US20140370086A1, “SUBLINGUAL IMMUNOTHERAPY WITH REDUCED ORAL ITCHINESS” (priority 2013, published 2014).

Conditions: at high doses

O=C(O)c1cc(=O)c2c(OCC(O)COc3cccc4oc(C(=O)O)cc(=O)c34)cccc2o1 [Cromolyn, Cromolyn sodium (cromoglicic acid)]
toxicity: no toxicity at high doses
